# Data as given in article PMC3071364, “Collagenolytic Activities of the Major Secreted Cathepsin L Peptidases Involved in the Virulence of the Helminth Pathogen, Fasciola hepatica” (PLoS Neglected Tropical Diseases, 2011).
# Read-outs that look alike come from different tables or passages of the source. Where a SMILES comes first, the peptide text is derived from it. The star is where a group is joined. AMC = Cc1cc(=O)oc2cc(N*)ccc12; Tos = Cc1ccc(S(=O)(=O)*)cc1; Cbz = O=C(OCc1ccccc1)*; Boc = CC(C)(C)OC(=O)*
# Legend:
# FhCL2 [1] = target: T1, FhCL2 (Fasciola hepatica, UniProt Q7JNQ8); test: Hydrolysis of fluorogenic peptidyl-NHMec substrates by recombinant FhCL2; assay type: biochemical; settings: FhCL2 compared to FhCL1
# T1 sequence (Q7JNQ8 entry or part of it): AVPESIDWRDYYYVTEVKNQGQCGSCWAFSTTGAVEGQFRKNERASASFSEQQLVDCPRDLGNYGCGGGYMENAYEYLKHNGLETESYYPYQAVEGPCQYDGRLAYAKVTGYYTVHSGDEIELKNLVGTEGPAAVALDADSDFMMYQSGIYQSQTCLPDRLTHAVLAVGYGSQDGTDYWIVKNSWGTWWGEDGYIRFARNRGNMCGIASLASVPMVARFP
# Procedure: (§1) Initial rates were obtained at 37°C over a range of substrate concentrations spanning Km values (0.2–200 µM) and at fixed enzyme concentrations (0.5–5 nM). Assays were performed in 100 mM sodium phosphate buffer (pH 6.0) containing 1 mM DTT and 1 mM EDTA. Rate constants for the inactivation of the Fasciola enzymes by Z-Phe-Ala-CHN2 and cathepsin K inhibitor II were determined from progress curves in the presence of substrate as previously described.
# FhCL3 [2] = target: T2, FhCL3 (Fasciola hepatica, UniProt B3TM67); test: Hydrolysis of fluorogenic peptidyl-NHMec substrates by recombinant FhCL3; assay type: biochemical; settings: for kcat/Km fold increase over FhCL1 / kcat/Km fold lower than FhCL1: FhCL3 compared to FhCL1; for fold better cleavage efficiency of FhCL3 than FhCL2: FhCL3 compared to FhCL2
# T2 sequence (B3TM67 entry or part of it): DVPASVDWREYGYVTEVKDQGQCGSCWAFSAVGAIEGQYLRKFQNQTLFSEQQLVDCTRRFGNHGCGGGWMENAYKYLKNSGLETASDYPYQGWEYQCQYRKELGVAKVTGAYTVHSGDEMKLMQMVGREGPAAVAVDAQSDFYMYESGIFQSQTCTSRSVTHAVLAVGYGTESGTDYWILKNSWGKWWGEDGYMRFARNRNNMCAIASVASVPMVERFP
# Procedure: as §1
# FhCL1 = target: T3, FhCL1 (Fasciola hepatica, UniProt Q7JNQ9); test: Inactivation of recombinant FhCL1 by inhibitors (progress curves in presence of substrate); assay type: biochemical; settings: for Ki: FhCL1
# T3 construct: His tag (inferred from Ni-NTA purification) (C); made in house; host or cells: Pichia pastoris
# T3 sequence (Q7JNQ9 entry or part of it): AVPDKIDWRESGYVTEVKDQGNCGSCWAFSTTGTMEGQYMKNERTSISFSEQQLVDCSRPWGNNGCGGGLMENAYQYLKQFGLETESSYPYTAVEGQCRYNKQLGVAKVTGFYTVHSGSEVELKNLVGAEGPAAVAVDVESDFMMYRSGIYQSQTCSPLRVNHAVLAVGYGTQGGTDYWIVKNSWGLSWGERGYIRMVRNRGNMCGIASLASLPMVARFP
# Procedure: as §1
# FhCL2 [3] = target: T1, FhCL2; test: Inactivation of recombinant FhCL2 by inhibitors (progress curves in presence of substrate); assay type: biochemical
# Procedure: as §1
# FhCL3 [4] = target: T2, FhCL3; test: Inactivation of recombinant FhCL3 by inhibitors (progress curves in presence of substrate); assay type: biochemical
# Procedure: as §1
# [5] = system: Cc1cc(=O)oc2cc(NC(=O)[C@H](CCCCN)NC(=O)[C@H](CC(C)C)NC(=O)[C@@H](NC(=O)OC(C)(C)C)C(C)C)ccc12; test: Hydrolysis of fluorogenic peptidyl-NHMec substrates by recombinant FhCL1; assay type: biochemical, Fasciola hepatica; settings: other: FhCL1, pH 6.0, 37°C
# Procedure: as §1
# [6] = system: Cc1cc(=O)oc2cc(NC(=O)[C@H](CCCNC(=N)N)NC(=O)[C@@H](NC(=O)[C@@H](NC(=O)OCc3ccccc3)C(C)C)C(C)C)ccc12; test: as above; assay type: biochemical, Fasciola hepatica; settings: other: FhCL1, pH 6.0, 37°C
# Procedure: as §1
# [7] = system: Cc1cc(=O)oc2cc(NC(=O)[C@H](CCCNC(=N)N)NC(=O)[C@@H]3CCCN3C(=O)CNC(=O)[C@H](C)NC(=O)OC(C)(C)C)ccc12; test: as above; assay type: biochemical, Fasciola hepatica; settings: other: FhCL1, pH 6.0, 37°C
# Procedure: as §1
# [8] = system: Cc1cc(=O)oc2cc(NC(=O)[C@H](CCCNC(=N)N)NC(=O)[C@@H]3CCCN3C(=O)[C@@H](NC(=O)OC(C)(C)C)C(C)C)ccc12; test: as above; assay type: biochemical, Fasciola hepatica; settings: other: FhCL1, pH 6.0, 37°C
# Procedure: as §1
# [9] = system: Cc1cc(=O)oc2cc(NC(=O)[C@H](CCCNC(=N)N)NC(=O)[C@H](CC(C)C)NC(=O)OCc3ccccc3)ccc12; test: as above; assay type: biochemical, Fasciola hepatica; settings: other: FhCL1, pH 6.0, 37°C
# Procedure: as §1
# [10] = system: Cc1cc(=O)oc2cc(NC(=O)[C@H](CCCNC(=N)N)NC(=O)[C@H](Cc3ccccc3)NC(=O)OCc3ccccc3)ccc12; test: as above; assay type: biochemical, Fasciola hepatica; settings: other: FhCL1, pH 6.0, 37°C
# Procedure: as §1
# [11] = system: Cc1ccc(S(=O)(=O)NCC(=O)N2CCC[C@H]2C(=O)N[C@@H](CCCCN)C(=O)Nc2ccc3c(C)cc(=O)oc3c2)cc1; test: as above; assay type: biochemical, Fasciola hepatica; settings: other: FhCL1, pH 6.0, 37°C
# Procedure: as §1
# [12] = system: Cc1ccc(S(=O)(=O)NCC(=O)N2CCC[C@H]2C(=O)N[C@@H](CCCNC(=N)N)C(=O)Nc2ccc3c(C)cc(=O)oc3c2)cc1; test: as above; assay type: biochemical, Fasciola hepatica; settings: other: FhCL1, pH 6.0, 37°C
# Procedure: as §1
compound,measurement,setting,value
"Cc1cc(=O)oc2cc(NC(=O)[C@H](CCCN=C(N)N)NC(=O)[C@@H]3CCCN3C(=O)CNC(=O)[C@H](C)NC(=O)OC(C)(C)C)ccc12 [Boc-AGPR-NHMec, Boc-Ala-Gly-Pro-Arg-NHMec] (Boc-AGPR-{AMC})",kcat/Km fold increase over FhCL1,FhCL2 [1],86 fold
same,kcat/Km fold increase over FhCL1,FhCL3 [2],90 fold
"Cc1cc(=O)oc2cc(NC(=O)[C@H](CCCN=C(N)N)NC(=O)[C@@H]3CCCN3C(=O)[C@@H](NC(=O)OC(C)(C)C)C(C)C)ccc12 [Boc-VPR-NHMec, Boc-Val-Pro-Arg-NHMec] (Boc-Val-Pro-Arg-{AMC})",kcat/Km fold increase over FhCL1,FhCL2 [1],44 fold
same,kcat/Km fold increase over FhCL1,FhCL3 [2],3 fold
"CC(C)C[C@H](NC(=O)OCc1ccccc1)C(=O)NNC(=O)NNC(=O)[C@H](CC(C)C)NC(=O)[C@H](Cc1ccccc1)NC(=O)OC(C)(C)C [Cathepsin K inhibitor II, Z-LNHNHCONHNHLF-Boc]",Ki,FhCL1; Ki(app),12.2 nM
same,Ki,FhCL1; Ki,0.63 nM
same,Ki,FhCL2 [3],0.46 nM
same,Ki,FhCL2 [3]; read-out: Ki(app),4.8 nM
same,fold less effective against FhCL3 compared to FhCL1,FhCL3 [4]; FhCL3 vs FhCL1,14 fold
same,fold less effective against FhCL3 compared to FhCL2,FhCL3 [4]; FhCL3 vs FhCL2,20 fold
"Cc1ccc(S(=O)(=O)NCC(=O)N2CCC[C@H]2C(=O)N[C@@H](CCCCN)C(=O)Nc2ccc3c(C)cc(=O)oc3c2)cc1 [Tos-GPK-NHMec, Tos-Gly-Pro-Lys-NHMec] (Tos-Gly-Pro-Lys-{AMC})",kcat/Km fold increase over FhCL1,FhCL2 [1],22 fold
same,kcat/Km fold increase over FhCL1,FhCL3 [2],60 fold
same,fold better cleavage efficiency of FhCL3 than FhCL2,FhCL3 [2],3 fold
"Cc1ccc(S(=O)(=O)NCC(=O)N2CCC[C@H]2C(=O)N[C@@H](CCCN=C(N)N)C(=O)Nc2ccc3c(C)cc(=O)oc3c2)cc1 [Tos-GPR-NHMec, Tos-Gly-Pro-Arg-NHMec] (Tos-Gly-Pro-Arg-{AMC})",kcat/Km fold increase over FhCL1,FhCL2 [1],28 fold
same,kcat/Km fold increase over FhCL1,FhCL3 [2],142 fold
same,fold better cleavage efficiency of FhCL3 than FhCL2,FhCL3 [2],5 fold
"Cc1cc(=O)oc2cc(NC(=O)[C@H](CCCN=C(N)N)NC(=O)[C@H](Cc3ccccc3)NC(=O)OCc3ccccc3)ccc12 [Z-FR-NHMec, Z-Phe-Arg-NHMec] (Cbz-Phe-Arg-{AMC})",kcat/Km fold lower than FhCL1,FhCL2 [1],6 fold
same,kcat/Km fold lower than FhCL1,FhCL3 [2],65 fold
"Cc1cc(=O)oc2cc(NC(=O)[C@H](CCCN=C(N)N)NC(=O)[C@H](CC(C)C)NC(=O)OCc3ccccc3)ccc12 [Z-LR-NHMec, Z-Leu-Arg-NHMec]",kcat/Km fold lower than FhCL1,FhCL2 [1],3.5 fold
same,kcat/Km fold lower than FhCL1,FhCL3 [2],66 fold
C[C@H](NC(=O)[C@H](Cc1ccccc1)NC(=O)OCc1ccccc1)C(=O)C=[N+]=[N-] [Z-Phe-Ala-CHN2],"rate of inactivation of FhCL1, fold higher than that of FhCL2",FhCL1; FhCL1 compared to FhCL2,~2 fold
same,Ki,FhCL1; Ki(app),31.4 nM
same,Ki,FhCL1; Ki,1.62 nM
same,Ki,FhCL2 [3],5.32 nM
same,Ki,FhCL2 [3]; read-out: Ki(app),55.2 nM
same,"rate of inactivation of FhCL3, fold lower",FhCL3 [4]; FhCL3 in contrast to FhCL1 and FhCL2,20 fold
FhCL1 (Fasciola hepatica),Km,[5],2.5 µM
same,kcat,[5],0.14 s⁻¹
same,kcat/Km,[5],54300 M⁻¹ s⁻¹
same,Km,[6],2.84 µM
same,kcat,[6],0.021 s⁻¹
same,kcat/Km,[6],7460 M⁻¹ s⁻¹
same,Km,[7],18.8 µM
same,kcat,[7],0.01 s⁻¹
same,kcat/Km,[7],674 M⁻¹ s⁻¹
same,Km,[8],22 µM
same,kcat,[8],0.01 s⁻¹
same,kcat/Km,[8],479 M⁻¹ s⁻¹
same,Km,[9],1.09 µM
same,kcat,[9],1.63 s⁻¹
same,kcat/Km,[9],1.49e+06 M⁻¹ s⁻¹
same,Km,[10],1.9 µM
same,kcat,[10],0.12 s⁻¹
same,kcat/Km,[10],64900 M⁻¹ s⁻¹
same,Km,[11],17.42 µM
same,kcat,[11],0.01 s⁻¹
same,kcat/Km,[11],612 M⁻¹ s⁻¹
same,Km,[12],27.2 µM
same,kcat,[12],0.02 s⁻¹
same,kcat/Km,[12],672 M⁻¹ s⁻¹
